Measured values: patent US20020169364A1, “Brainstem and limbic disorder (BALD)” (priority 2000, published 2002)
Where a name gives a salt, the structure may show the parent alone.

Assay: Clinical use in treatment protocol of the BALD syndrome
Type: in vivo
Details: for clinical outcome, pulmonary problems: BALD patients with pulmonary problems (restrictive lung disease); for clinical outcome in treatment of the BALD syndrome: patients with BALD syndrome, core treatment steps (calcium channel blocker, anti-viral/anti-fungal, chelating agent)
Excerpt: The treatment protocol consists of ruling in or out of the BALD syndrome then treatment of the core pathology of the syndrome if present. This consists of treatment of the most acute aspects of the BALD syndrome followed by more conservative treatments of the more chronic symptoms or pathology. If diagnosis progresses to brainstem or other neuron damage with significant inflammation the treatment consists of immediate inflammation reduction and stabilization of the immune system. This is followed by conservative treatments as indicated in the diagnosis of the disorder.
The treatment proceeds in steps.
Step one in the treatment of the disorder would start with drugs that are known to block calcium intake channels of neurons. […] The usual dosage can be 30 mg. three times daily more or less in the clinical judgment of the physician.
Step three in the treatment of a BALD syndrome involving viral infection to any degree is to administer anti-viral and anti-fungal drugs to the patient. […] This is a synthetic acyclic purine nucleoside analog.
This Is a synthetic broad spectrum bis-trazole antifungal agent. […] This is a synthetic trazole antifungal agent with the chemical name of itraconazole.
Step seven is to administer a chelating agent to the patient to eliminate toxic heavy metals from the system.
Azulfadine should be started for patients with irritable bowel syndrome.

With `O=C1CN=C(c2ccccc2Cl)c2cc([N+](=O)[O-])ccc2N1` [Klonapin, clonazepam] the “clinical outcome, anti-anxiety” value (BALD patients, anti-anxiety drug) was “clinically successful”.

With `CC(C)(O)c1ccccc1CC[C@@H](SCC1(CC(=O)O)CC1)c1cccc(/C=C/c2ccc3ccc(Cl)cc3n2)c1` [Singulair, sodium montelukast] the “clinical outcome, pulmonary problems” value was “Clinical success”.

With `CC(C)[C@H](N)C(=O)OCCOCn1cnc2c(=O)[nH]c(N)nc21` [Valtrex, valacyclovir hydrochloride] the “clinical outcome in treatment of the BALD syndrome” value (“clinical outcome in treatment” for short) was “clinically successful”.

With `OC(Cn1cncn1)(Cn1cncn1)c1ccc(F)cc1F` [difulcan, fluconazole] the “clinical outcome in treatment” value was “good clinical results”.

With `COc1cc(C(=O)NS(=O)(=O)c2ccccc2C)ccc1Cc1cn(C)c2ccc(NC(=O)OC3CCCC3)cc12` [Accolate, zafirlukast] the “clinical outcome, pulmonary problems” value was “clinically successful”.

With `O=C([O-])CN(CCN(CC(=O)[O-])CC(=O)O)CC(=O)O.[Na+].[Na+]` [EDTA, edate disodium] the “clinical outcome in treatment” value was “Clinical success”.

For `Nc1nc2c(ncn2COCCO)c(=O)[nH]1` [Acyclovir, acycloguanosine], the “clinical outcome in treatment” value was “Clinical success”.

In the case of `O=C(O)c1cc(/N=N/c2ccc(S(=O)(=O)Nc3ccccn3)cc2)ccc1O` [Azulfadine, sulfasalazine], the “clinical outcome, irritable bowel syndrome” value (BALD patients with irritable bowel syndrome) is reported as “successful drug in clinical usage”.
